The IC50 is the concentration that inhibits the measured activity by half.

For the first assay, the system named is HCT116 WT. Kind of assay: Proliferation of HCT116 colorectal cell line, Cell TiterGlo. Type of assay: cell-based, human. Conditions: Homo sapiens, HCT-116, read-out: HCT116 IC50 (uM) HCT116 WT. How it is done: Briefly, compounds were tested for their effect on proliferation of HCT116 colorectal cell lines using Cell TiterGlo (Promega). Each compound was tested in a 10-point dose response experiment in triplicate. Multiple values in the column titled HCT116 WT reflect separate independent experiments. The three columns titled “HCT116 WT (repeat)”, “HCT116-CGN2KO” and “HCT116 WT+ISRIB” provide data for selected compounds that were tested simultaneously under three conditions. The HCT116 WT column lists IC50 against the wild type HCT116 colorectal cancer cell line. The HCT116-CGN2KO lists IC50 data for cells in which one component of the integrated stress response, GCN2, has been knocked out using CRISPR technology.
(ATP-based viability assays read luminescence as a measure of living cells.)
As for `Cn1nc(-c2ccc(NC(=O)c3ccccc3COCCN=[N+]=[N-])cc2)cc1NC(=O)c1cccc(C2(C(F)(F)F)N=N2)c1` [SW394739, 2-((2-azidoethoxy)methyl)-N-(4-(1-methyl-5-(3-(3-(trifluoromethyl)-3H-diazirin-3-yl)benzamido)-1H-pyrazol-3-yl)phenyl)benzamide], the half-maximal inhibitory concentration (IC50) is 0.4 µM.

The assay is the same for the next values; noted with them: Homo sapiens, HCT-116, wild type HCT116; 10-point dose response in triplicate; multiple values = separate independent experiments; read-out: HCT116 IC50 (uM) HCT116 WT.
On to `Cc1ncccc1C(=O)Nc1ccc(-c2cc(NC(=O)c3ccccc3)n(C)n2)cc1` [SW394518, N-(4-(5-Benzamido-1-methyl-1H-pyrazol-3-yl)phenyl)-2-methylnicotinamide], for which the concentration for half-maximal inhibition (IC50) stood at 0.016 µM.

For the compound `Cc1ccncc1C(=O)Nc1ccc(-c2cc(NC(=O)c3ccccc3)n(C)n2)cc1` [SW394519, N-(4-(5-Benzamido-1-methyl-1H-pyrazol-3-yl)phenyl)-4-methylnicotinamide], the 50% inhibitory concentration (IC50) turned out to be 0.25 µM.

For `Cn1nc(-c2ccc(NC(=O)c3ccccc3COCCNC(=O)OC(C)(C)C)cc2)cc1NC(=O)c1ccccc1` [SW394532, tert-butyl (2-((2-((4-(5-benzamido-1-methyl-1H-pyrazol-3-yl)phenyl)carbamoyl)benzyl)oxy)ethyl)carbamate], the half-maximal inhibitory concentration (IC50) is 0.121 µM.

Consider `Cn1nc(-c2ccc(NC(=O)c3ccccc3C#CCNC(=O)OC(C)(C)C)cc2)cc1NC(=O)c1ccccc1` [SW394544, tert-butyl(3-(2-((4-(5-benzamido-1-methyl-1H-pyrazol-3-yl)phenyl)carbamoyl)phenyl)prop-2-yn-1-yl)carbamate], for which the IC50 was 1.2 µM.

Regarding `Cn1nc(-c2ccc(NC(=O)c3ccccc3Cl)cc2)cc1NC(=O)C1CCCCC1` [SW394546, 2-Chloro-N-(4-(5-(Cyclohexanecarboxamido)-1-methyl-1H-pyrazol-3-yl)phenyl)benzamide], the IC50 was found to be 0.033 µM.

Regarding `Cn1nc(-c2ccc(NC(=O)c3ccccc3Cl)cc2)cc1NC(=O)C1CCOCC1` [SW394547, N-(3-(4-(2-Chlorobenzamido)phenyl)-1-methyl-1H-pyrazol-5-yl)tetrahydro-2H-pyran-4-car-boxamide], the IC50 worked out at 0.05 µM.

In the case of `Cn1nc(-c2ccc(NC(=O)c3ccccc3-c3ccc([N+](=O)[O-])cc3)cc2)cc1NC(=O)c1ccccc1` [SW394548, N-(4-(5-Benzamido-1-methyl-1H-pyrazol-3-yl)phenyl)-4′-nitro-[1,1′-biphenyl]-2-carboxam-ide], the half-inhibitory concentration (IC50) is 1.13 µM.

For the compound `C#Cc1cccc(C(=O)Nc2cc(-c3ccc(NC(=O)c4ccccc4-c4ccc(N=[N+]=[N-])cc4)cc3)nn2C)c1` [SW394549, 4′-Azido-N-(4-(5-(3-ethynylbenzamido)-1-methyl-1H-pyrazol-3-yl)phe-nyl)[1,1′-biphenyl]-2-carboxamide], the 50% inhibitory concentration (IC50) was 4.1 µM.

Turning to `O=C(Nc1ccc(-c2cc(NC(=O)c3ccccc3)on2)cc1)c1ccccc1` [SW394572, N-(4-(5-benzamidoisoxazol-3-yl)phenyl)benzamide], the IC50 was found to be 5.8 µM.

Take `Cc1ncncc1C(=O)Nc1ccc(-c2cc(NC(=O)c3ccccc3)n(C)n2)cc1` [SW394598, N-(4-(5-Benzamido-1-methyl-1H-pyrazol-3-yl)phenyl)-4-methylpyrimidine-5-carboxamide]: the half-maximal inhibitory concentration (IC50) was 0.55 µM.

As for `Cn1nc(-c2ccc(NC(=O)c3ccccc3Cl)cc2)cc1NC(=O)C1CCCCCC1` [SW394599, N-(3-(4-(2-Chlorobenzamido)phenyl)-1-methyl-1H-pyrazol-5-yl)cycloheptanecarboxamide], the IC50 was determined as 0.05 µM.

`Cn1nc(-c2ccc(NC(=O)c3ccccc3Cl)cc2)cc1NC(=O)C1CCCC1` [SW394600, 2-Chloro-N-(4-(5-(cyclopentanecarboxamido)-1-methyl-1H-pyrazol-3-yl)phenyl)benzamide]: the half-maximal inhibitory concentration (IC50) was 0.051 µM.

Regarding `Cn1nc(-c2ccc(NC(=O)c3ccccc3Cl)cc2)cc1NC(=O)C1CCC(F)(F)CC1` [SW394602, 2-Chloro-N-(4-(5-(4,4-difluorocyclohexane-1-carboxamido)-1-methyl-1H-pyrazol-3-yl)phen-yl)benzamide], the half-maximal inhibitory concentration (IC50) was found to be 0.049 µM.

Take `Cn1nc(-c2ccc(NC(=O)c3cccnc3C(F)(F)F)cc2)cc1NC(=O)c1ccccc1` [SW394603, N-(4-(5-Benzamido-1-methyl-1H-pyrazol-3-yl)phenyl)-2-(trifluoromethyl)nicotinamide]: the half-inhibitory concentration (IC50) is 0.02 µM.

As to `Cn1nc(-c2ccc(NC(=O)c3cccnc3C(F)(F)F)cc2)cc1NC(=O)c1ccccc1F` [SW394629, N-(4-(5-(2-Fluorobenzamido)-1-methyl-1H-pyrazol-3-yl)phenyl)-2-(trifluoromethyl)nicotinamide], the half-inhibitory concentration (IC50) stood at 0.017 µM.

In the case of `Cc1ncccc1C(=O)Nc1ccc(-c2cc(NC(=O)c3ccccc3Cl)n(C)n2)cc1` [SW394630, N-(4-(5-(2-Chlorobenzamido)-1-methyl-1H-pyrazol-3-yl)phenyl)-2-methylnicotinamide], the IC50 amounted to 0.014 µM.

As to `Cn1nc(-c2ccc(NC(=O)c3cccnc3C(F)(F)F)cc2)cc1NC(=O)c1ccccc1Cl` [SW394631, N-(4-(5-(2-Chlorobenzamido)-1-methyl-1H-pyrazol-3-yl)phenyl)-2-(trifluoromethyl)nicotinamide], the IC50 turned out to be 0.022 µM.

Take `Cn1nc(-c2ccc(NC(=O)c3ccccc3COCCNC(=O)CCCC[C@H]3SC[C@H]4NC(=O)N[C@H]43)cc2)cc1NC(=O)c1ccccc1` [SW394656, N-(4-(5-benzamido-1-methyl-1H-pyrazol-3-yl)phenyl)-2-((2-(5-((3aR,4R,6aS)-2-oxohexahydro-1H-thieno[3,4-d]imidazol-4-yl)pentanamido)ethoxy)methyl)benzamide]: the IC50 turned out to be 0.071 µM.

Regarding `Cn1nc(-c2ccc(CC(=O)c3ccccc3CCCNC(=O)CCCC[C@@H]3CC[C@]4(C)CCC[C@H]34)cc2)cc1CC(=O)c1ccccc1` [SW394657], the IC50 was 0.044 µM.

Regarding `Cn1nc(-c2ccc(NC(=O)c3ccccc3Cl)cc2)cc1NC(=O)c1cccc(CCCNC(=O)CCCC[C@H]2SC[C@H]3NC(=O)N[C@H]32)c1` [SW394692, 2-chloro-N-(4-(1-methyl-5-(3-(3-(5-((3aR,4R,6aS)-2-oxohexahydro-1H-thieno[3,4-d]142 imidazole-4-yl)pentanamido)propyl)benzamido)-1H-pyrazol-3-yl)phenyl)benzamide], the IC50 was determined as 0.5 µM.

As for `Cn1nc(-c2ccc(NC(=O)c3ccccc3Cl)cc2)cc1NC(=O)c1cccc(C#CCN)c1` [SW394693, N-(4-(5-(3-(3-aminoprop-1-yn-1-yl)benzamido)-1-methyl-1H-pyrazol-3-yl)phenyl)-2-chlorobenzamide], the 50% inhibitory concentration (IC50) stood at 0.17 µM.

As to `Cc1ncccc1C(=O)Nc1ccc(-c2cc(NC(=O)c3ccccc3)n(C)n2)c(F)c1` [SW394694, N-(4-(5-Benzamido-1-methyl-1H-pyrazol-3-yl)-3-fluorophenyl)-2-methylnicotinamide], the IC50 was found to be 0.03 µM.

Consider `Cc1ncccc1C(=O)Nc1ccc(-c2cc(NC(=O)c3ccccc3F)n(C)n2)c(F)c1` [SW394695, N-(3-Fluoro-4-(5-(2-fluorobenzamido)-1-methyl-1H-pyrazol-3-yl)phenyl)-2-methylnicotinamide], for which the IC50 came out at 0.03 µM.

Take `Cc1ncccc1C(=O)Nc1ccc(-c2cc(NC(=O)C3CCC(F)(F)CC3)n(C)n2)c(F)c1` [SW394696, N-(4-(5-(4,4-Difluorocyclohexane-1-carboxamido)-1-methyl-1H-pyrazol-3-yl)-3-fluorophen-yl)-2-methylnicotinamide]: the IC50 was 0.09 µM.

Turning to `Cn1nc(-c2ccc(NC(=O)c3ccccc3N3CCOCC3)cc2)cc1NC(=O)c1ccccc1` [SW394697, N-(4-(5-Benzamido-1-methyl-1H-pyrazol-3-yl)phenyl)-2-morpholinobenzamide], the 50% inhibitory concentration (IC50) turned out to be 0.77 µM.

Take `CN1CCN(c2ccccc2C(=O)Nc2ccc(-c3cc(NC(=O)c4ccccc4)n(C)n3)cc2)CC1` [SW394698, N-(4-(5-Benzamido-1-methyl-1H-pyrazol-3-yl)phenyl)-2-(4-methylpiperazin-1-yl)benzamide]: the IC50 was determined as 10 µM.

As for `Cc1ncccc1C(=O)Nc1ccc(-c2cc(NC(=O)c3ccccc3Cl)n(C)n2)c(F)c1` [SW394699, N-(4-(5-(2-chlorobenzamido)-1-methyl-1H-pyrazol-3-yl)-3-fluorophenyl)-2-methylnicotinamide], the concentration for half-maximal inhibition (IC50) was determined as 0.02 µM.

With `Cn1nc(-c2ccc(NC(=O)c3ccccc3COCCN=[N+]=[N-])cc2)cc1NC(=O)c1cccc(C(=O)c2ccccc2)c1` [SW394738, 2-((2-azidoethoxy)methyl)-N-(4-(5-(3-benzoylbenzamido)-1-methyl-1H-pyrazol-3-yl)phenyl)benzamide], the IC50 came out at 0.07 µM.

For the compound `C#Cc1cccc(C(=O)Nc2cc(-c3ccc(NC(=O)c4ccccc4COCCNC(=O)CCC4(C)N=N4)cc3)nn2C)c1` [SW394741, N-(4-(5-(3-ethynylbenzamido)-1-methyl-1H-pyrazol-3-yl)phenyl)-2-((2-(3-(3-methyl-3H-diazirin-3-yl)propanamido)ethoxy)methyl)benzamide], the half-maximal inhibitory concentration (IC50) amounted to 0.17 µM.

The same assay, now with this note: wild type HCT116; 10-point dose response in triplicate; multiple values = separate independent experiments.
Take `O=C(Nc1cccc(-c2ccc(NC(=O)c3ccccc3Cl)cc2)n1)c1ccccc1` [SW394535, N-(4-(6-benzamidopyridin-2-yl)phenyl)-2-chlorobenzamide]: the “HCT116 IC50 (uM) HCT116 WT” value was “inactive”.

For `O=C(Nc1ccc(-c2nnc(NC(=O)c3ccccc3Cl)o2)cc1)c1ccccc1Cl` [SW394597, 2-chloro-N-(4-(5-(2-chlorobenzamido)-1,3,4-oxadiazol-2-yl)phenyl)benzamide], the “HCT116 IC50 (uM) HCT116 WT” value is “inactive”.

The same assay, now with this note: wild type HCT116; 10-point dose response in triplicate; multiple values = separate independent experiments; read-out: HCT116 IC50 (uM) HCT116 WT.
`Cn1nc(-c2ccc(NC(=O)N3CCCCC3)cc2)cc1NC(=O)c1ccccc1` [SW394601, N-(4-(5-benzamido-1-methyl-1H-pyrazol-3-yl)phenyl)piperidine-1-carboxamide]: the 50% inhibitory concentration (IC50) amounted to 7.4 µM.

These data come from patent US20250257041A1, “INDUCERS OF INTEGRATED STRESS RESPONSE TO TREAT CANCER” (The Board of Regents of The University of Texas System, priority 2022, published 2025).
